Results published in ChEMBL document CHEMBL1201862, “PubChem BioAssay data set” (2004).
Active and inactive are the calls of the source.

Experiments:
cells [1] = type: functional, cell-based
[2] = molecular target: Voltage-gated inwardly rectifying potassium channel KCNH2 (Homo sapiens, UniProt Q12809); details: Potency;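 further: confirmatory quantitative high-throughput screen measuring inhibition of hERG channel activity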
[3] = molecular target: 5-hydroxytryptamine receptor 2A (Mus musculus, UniProt P35363); type: functional, cell-based;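 further: CHO-K1 cells with tagged receptor and beta-arrestin; agonist potency measured as compound-induced activation of the receptor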
[4] = molecular target: T1, Trace amine-associated receptor 1 (Homo sapiens, UniProt Q96RJ0); assay: Counterscreen for agonists of the human trace amine associated receptor 1 (hTAAR1): Fluorescence-based cell-based high throughput dose response assay to identify hTAAR1 agonist that also desensitize TAAR1 receptor response.; type: functional
T1 sequence (Q96RJ0 whole entry): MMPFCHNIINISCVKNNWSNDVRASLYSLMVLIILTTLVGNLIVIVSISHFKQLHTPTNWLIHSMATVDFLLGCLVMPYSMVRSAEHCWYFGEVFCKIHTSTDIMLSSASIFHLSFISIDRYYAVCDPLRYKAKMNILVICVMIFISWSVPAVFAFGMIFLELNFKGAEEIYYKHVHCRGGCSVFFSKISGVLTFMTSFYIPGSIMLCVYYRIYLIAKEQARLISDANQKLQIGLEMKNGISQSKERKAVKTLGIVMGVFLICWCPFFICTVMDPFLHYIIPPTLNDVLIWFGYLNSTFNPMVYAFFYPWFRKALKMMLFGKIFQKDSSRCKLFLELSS

[5] = molecular target: T1, Trace amine-associated receptor 1; assay: Fluorescence-based cell-based high throughput dose response assay to identify agonists of the human trace amine associated receptor 1 (TAAR1).; type: functional
Mu-type opioid receptor = Mu-type opioid receptor (Homo sapiens, UniProt P35372); type: functional, cell-based;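 further: U2OS cells with beta-arrestin recruitment to OPRM1 by beta-gal complementation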
Sequence of Mu-type opioid receptor (P35372 whole entry): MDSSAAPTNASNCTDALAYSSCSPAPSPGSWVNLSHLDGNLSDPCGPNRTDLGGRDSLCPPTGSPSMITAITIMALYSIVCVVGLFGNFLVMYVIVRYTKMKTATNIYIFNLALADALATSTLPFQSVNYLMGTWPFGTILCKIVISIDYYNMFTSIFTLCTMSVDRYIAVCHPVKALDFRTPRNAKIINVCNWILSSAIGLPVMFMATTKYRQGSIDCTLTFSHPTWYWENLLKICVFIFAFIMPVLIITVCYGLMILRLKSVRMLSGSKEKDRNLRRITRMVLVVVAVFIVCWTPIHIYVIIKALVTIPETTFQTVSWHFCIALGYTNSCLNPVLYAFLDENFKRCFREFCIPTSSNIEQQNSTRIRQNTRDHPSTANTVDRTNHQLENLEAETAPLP

cells [6] = type: functional, cell-based; remark: listed apart in the source
HeLa = assay: HeLa cell cytotoxicity, dose response, cytotoxicity control for MITF activator project, CellTiter-Glo luminescence, cherry-pick samples (AID 540259); type: functional, cell-based; details: Homo sapiens
Protein skinhead-1 = molecular target: T2, Protein skinhead-1 (Caenorhabditis elegans, UniProt P34707); type: functional
T2 sequence (P34707 whole entry): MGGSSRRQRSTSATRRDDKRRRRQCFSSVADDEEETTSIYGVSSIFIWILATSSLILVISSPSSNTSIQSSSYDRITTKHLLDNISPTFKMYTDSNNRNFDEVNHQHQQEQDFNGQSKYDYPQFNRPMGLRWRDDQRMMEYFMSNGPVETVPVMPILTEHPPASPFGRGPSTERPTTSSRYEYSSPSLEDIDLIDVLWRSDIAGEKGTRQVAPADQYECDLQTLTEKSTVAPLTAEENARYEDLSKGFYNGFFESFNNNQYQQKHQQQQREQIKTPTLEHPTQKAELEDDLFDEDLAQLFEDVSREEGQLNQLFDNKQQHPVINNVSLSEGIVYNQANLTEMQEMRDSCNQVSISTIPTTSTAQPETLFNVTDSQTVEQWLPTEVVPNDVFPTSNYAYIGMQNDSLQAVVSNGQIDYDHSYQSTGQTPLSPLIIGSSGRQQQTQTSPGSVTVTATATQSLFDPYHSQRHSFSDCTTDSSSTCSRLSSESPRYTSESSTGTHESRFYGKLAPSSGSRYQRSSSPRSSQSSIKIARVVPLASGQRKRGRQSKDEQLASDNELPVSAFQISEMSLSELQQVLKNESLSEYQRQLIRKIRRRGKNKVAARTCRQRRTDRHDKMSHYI

[7] = nonselective inhibitors of cellular cAMP signaling, dose response, counter-screen for MC4R biased antagonist project, cell-based, TR-FRET cAMP detection (AID 602305); type: functional;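 further: U2OS cells stimulated with forskolin near its EC80 as the cAMP inducer; potency is for inhibition of forskolin-stimulated cAMP signaling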
Melanocortin receptor 4 = Melanocortin receptor 4 (Homo sapiens, UniProt P32245); assay: MC4R antagonist potency on cAMP, dose response, cell-based, TR-FRET, biased antagonists (AID 602298); type: functional;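 further: antagonist potency against agonist-stimulated cAMP production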
Sequence of Melanocortin receptor 4 (P32245 whole entry, the tested form may be a part): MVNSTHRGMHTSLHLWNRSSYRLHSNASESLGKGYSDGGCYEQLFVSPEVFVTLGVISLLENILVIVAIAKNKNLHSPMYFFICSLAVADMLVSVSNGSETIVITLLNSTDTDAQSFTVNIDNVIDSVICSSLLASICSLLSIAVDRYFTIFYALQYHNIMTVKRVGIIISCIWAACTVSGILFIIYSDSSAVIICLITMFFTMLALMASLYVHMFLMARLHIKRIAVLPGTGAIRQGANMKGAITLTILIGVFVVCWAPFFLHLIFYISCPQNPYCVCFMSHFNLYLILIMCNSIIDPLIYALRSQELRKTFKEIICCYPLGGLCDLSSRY

Fatty acid synthase [8] = molecular target: T3, Fatty acid synthase (Homo sapiens, UniProt P49327); assay: FAS thioesterase domain inhibitors, dose response, biochemical, endpoint fluorescence intensity, uHTS hits (AID 624327); type: functional;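 further: fluorescence from hydrolysis of an O-methyl fluorescein acyl ester substrate by the enzyme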
T3 sequence (P49327 whole entry, the tested form may be a part): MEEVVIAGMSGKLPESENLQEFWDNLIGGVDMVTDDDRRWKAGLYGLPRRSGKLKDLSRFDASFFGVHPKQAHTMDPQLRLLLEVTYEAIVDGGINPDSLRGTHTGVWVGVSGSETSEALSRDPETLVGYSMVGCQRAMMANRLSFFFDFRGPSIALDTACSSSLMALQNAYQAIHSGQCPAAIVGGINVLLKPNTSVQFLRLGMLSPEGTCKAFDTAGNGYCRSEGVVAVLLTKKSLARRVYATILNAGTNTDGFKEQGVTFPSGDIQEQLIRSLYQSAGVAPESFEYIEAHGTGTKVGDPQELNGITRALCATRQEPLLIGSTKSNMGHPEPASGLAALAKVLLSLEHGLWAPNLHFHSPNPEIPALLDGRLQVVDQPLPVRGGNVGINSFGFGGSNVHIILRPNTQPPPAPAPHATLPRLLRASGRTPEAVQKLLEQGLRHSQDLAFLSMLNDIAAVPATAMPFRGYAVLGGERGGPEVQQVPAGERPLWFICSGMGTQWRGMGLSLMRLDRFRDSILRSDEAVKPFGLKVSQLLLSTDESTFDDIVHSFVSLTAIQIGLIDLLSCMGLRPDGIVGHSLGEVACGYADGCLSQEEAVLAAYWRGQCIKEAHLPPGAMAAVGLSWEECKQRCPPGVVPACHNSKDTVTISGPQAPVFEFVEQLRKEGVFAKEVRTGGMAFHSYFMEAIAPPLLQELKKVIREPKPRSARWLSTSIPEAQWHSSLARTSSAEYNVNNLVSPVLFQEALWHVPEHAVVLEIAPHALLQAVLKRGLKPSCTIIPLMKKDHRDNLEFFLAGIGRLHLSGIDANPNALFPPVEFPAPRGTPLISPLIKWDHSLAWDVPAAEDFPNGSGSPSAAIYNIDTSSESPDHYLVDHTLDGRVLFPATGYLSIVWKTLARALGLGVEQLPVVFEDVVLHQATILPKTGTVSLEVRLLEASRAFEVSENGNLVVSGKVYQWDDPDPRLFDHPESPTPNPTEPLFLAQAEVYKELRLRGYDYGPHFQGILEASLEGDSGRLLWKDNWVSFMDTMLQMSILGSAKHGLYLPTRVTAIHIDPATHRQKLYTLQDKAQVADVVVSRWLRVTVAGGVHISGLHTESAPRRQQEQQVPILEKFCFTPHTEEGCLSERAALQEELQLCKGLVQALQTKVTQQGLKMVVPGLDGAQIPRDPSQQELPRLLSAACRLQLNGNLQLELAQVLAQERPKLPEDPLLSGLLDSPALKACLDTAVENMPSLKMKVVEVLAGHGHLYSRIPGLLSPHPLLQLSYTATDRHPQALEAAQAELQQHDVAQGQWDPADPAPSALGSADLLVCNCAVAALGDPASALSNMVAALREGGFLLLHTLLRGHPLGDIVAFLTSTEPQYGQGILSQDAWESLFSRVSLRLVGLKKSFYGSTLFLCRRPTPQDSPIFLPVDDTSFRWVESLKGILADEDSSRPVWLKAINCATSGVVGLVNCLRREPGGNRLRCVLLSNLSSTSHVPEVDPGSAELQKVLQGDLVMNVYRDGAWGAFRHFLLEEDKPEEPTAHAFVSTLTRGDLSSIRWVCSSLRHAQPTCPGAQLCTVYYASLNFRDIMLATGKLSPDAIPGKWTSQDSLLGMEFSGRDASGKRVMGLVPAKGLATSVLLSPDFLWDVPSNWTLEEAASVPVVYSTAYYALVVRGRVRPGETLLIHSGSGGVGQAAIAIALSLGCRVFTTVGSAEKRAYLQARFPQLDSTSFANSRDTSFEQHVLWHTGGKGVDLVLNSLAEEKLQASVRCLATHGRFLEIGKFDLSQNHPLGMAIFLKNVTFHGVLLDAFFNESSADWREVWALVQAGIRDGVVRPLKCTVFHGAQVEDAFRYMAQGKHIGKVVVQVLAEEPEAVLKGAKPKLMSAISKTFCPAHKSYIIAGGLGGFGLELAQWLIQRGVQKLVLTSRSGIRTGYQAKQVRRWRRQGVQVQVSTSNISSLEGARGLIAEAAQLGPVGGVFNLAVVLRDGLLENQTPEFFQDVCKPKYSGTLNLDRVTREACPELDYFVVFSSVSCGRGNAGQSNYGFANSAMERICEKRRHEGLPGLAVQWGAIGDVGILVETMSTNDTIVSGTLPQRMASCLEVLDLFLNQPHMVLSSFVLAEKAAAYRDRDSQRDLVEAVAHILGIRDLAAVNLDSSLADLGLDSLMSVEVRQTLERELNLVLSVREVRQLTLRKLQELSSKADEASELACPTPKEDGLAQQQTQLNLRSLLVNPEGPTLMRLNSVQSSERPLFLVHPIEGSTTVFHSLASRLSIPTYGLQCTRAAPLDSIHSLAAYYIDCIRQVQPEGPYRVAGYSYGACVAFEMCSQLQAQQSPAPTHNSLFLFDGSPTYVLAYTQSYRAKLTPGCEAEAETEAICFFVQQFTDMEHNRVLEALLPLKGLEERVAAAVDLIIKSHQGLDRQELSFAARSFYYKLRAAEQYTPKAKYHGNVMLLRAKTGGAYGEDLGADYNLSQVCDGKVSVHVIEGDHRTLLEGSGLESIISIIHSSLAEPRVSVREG

[9] = molecular target: Nucleotide-binding oligomerization domain-containing protein 2 (Homo sapiens, UniProt Q9HC29); assay: NOD2 signaling inhibitors, cell-based, luminescence, uHTS, HEK293 (AID 1566); type: functional
[10] = HepG2 cell cytotoxicity, dose response, cytotoxicity control for Shn3 inhibitor project, CellTiter-Glo, cherry-picked (AID 624134); type: functional, cell-based
HEK293 [11] = assay: cells; type: functional, cell-based; details: Homo sapiens
HEK293 [12] = assay: cells; type: functional, cell-based; details: Homo sapiens; remark: listed apart in the source
HEK293 [13] = assay: NOD2 signaling inhibitors in MDP-stimulated cells, cell-based, uHTS, luminescence (AID 2001); type: functional; details: Homo sapiens
[14] = Shn3 3'UTR reporter inhibitors, dose response, cell-based, Clone20 osteoblasts, firefly luciferase, cherry-picked (AID 624132); type: functional;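 further: firefly luciferase luminescence from reporter carrying the Shn3 3'UTR in osteoblasts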
[15] = control 3'UTR Renilla luciferase suppression, dose response, counter-screen for Shn3 inhibitor project, cell-based, Clone20-Shn3RL, cherry-picked (AID 624133); type: functional
HEK293 [16] = assay: NOD1 signaling inhibitors, primary screen, cell-based, luminescence, uHTS (AID 1578); type: functional; details: Homo sapiens
INS1 = assay: beta cell apoptosis inhibitors, cytokine rescue, dose response, luminescence, retest (AID 449756); type: functional, cell-based; details: Rattus norvegicus;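 further: cell death triggered by IL-1 beta plus TNF-alpha plus IFN-gamma mixture; protective hits raise ATP signal compared with cytokine alone wells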
Beta Lactamase = Beta Lactamase (Pseudomonas aeruginosa, UniProt Q932Y6); assay: beta-lactamase reporter inhibitor potency, dose response, artefact control for TLR9-MyD88 binding inhibitor project, BLA reporter cells, FRET fluorescence (AID 588341); type: cell-based;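 further: cell based assay in CHO-K1 cells stably expressing beta-lactamase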
Sequence of Beta Lactamase (Q932Y6 whole entry, the tested form may be a part): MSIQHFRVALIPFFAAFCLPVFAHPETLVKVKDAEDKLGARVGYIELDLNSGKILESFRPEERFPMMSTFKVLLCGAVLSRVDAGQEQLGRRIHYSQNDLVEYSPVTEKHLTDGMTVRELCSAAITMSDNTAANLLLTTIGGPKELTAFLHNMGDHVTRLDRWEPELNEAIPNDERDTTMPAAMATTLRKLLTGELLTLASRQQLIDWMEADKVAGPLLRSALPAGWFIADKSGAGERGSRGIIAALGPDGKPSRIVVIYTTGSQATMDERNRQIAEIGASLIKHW

Fatty acid synthase [17] = molecular target: T3, Fatty acid synthase; assay: FAS thioesterase domain inhibitors, dose response, biochemical, kinetic fluorescence intensity (AID 624326); type: functional;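 further: rate of fluorescence rise from hydrolysis of a fluorogenic O-methyl fluorescein ester substrate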
CHO = assay: cytotoxicity in TLR9-MyD88 CHO cells, dose response, cytotoxicity control for TLR9-MyD88 binding inhibitor project, cell-based, luminescence (AID 588339); type: functional, hamster; details: Cricetulus griseus;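 further: CHO cells stably coexpressing TLR9 and MyD88 fusions from primary screen; compound exposure lasted 48 hours before viability readout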
Hexokinase HKDC1 = molecular target: T4, Hexokinase HKDC1 (Homo sapiens, UniProt Q2TB90); assay: HKDC1 hexokinase inhibitors, SAR follow-up, biochemical, set 2 (AID 588355); type: functional
T4 sequence (Q2TB90 whole entry): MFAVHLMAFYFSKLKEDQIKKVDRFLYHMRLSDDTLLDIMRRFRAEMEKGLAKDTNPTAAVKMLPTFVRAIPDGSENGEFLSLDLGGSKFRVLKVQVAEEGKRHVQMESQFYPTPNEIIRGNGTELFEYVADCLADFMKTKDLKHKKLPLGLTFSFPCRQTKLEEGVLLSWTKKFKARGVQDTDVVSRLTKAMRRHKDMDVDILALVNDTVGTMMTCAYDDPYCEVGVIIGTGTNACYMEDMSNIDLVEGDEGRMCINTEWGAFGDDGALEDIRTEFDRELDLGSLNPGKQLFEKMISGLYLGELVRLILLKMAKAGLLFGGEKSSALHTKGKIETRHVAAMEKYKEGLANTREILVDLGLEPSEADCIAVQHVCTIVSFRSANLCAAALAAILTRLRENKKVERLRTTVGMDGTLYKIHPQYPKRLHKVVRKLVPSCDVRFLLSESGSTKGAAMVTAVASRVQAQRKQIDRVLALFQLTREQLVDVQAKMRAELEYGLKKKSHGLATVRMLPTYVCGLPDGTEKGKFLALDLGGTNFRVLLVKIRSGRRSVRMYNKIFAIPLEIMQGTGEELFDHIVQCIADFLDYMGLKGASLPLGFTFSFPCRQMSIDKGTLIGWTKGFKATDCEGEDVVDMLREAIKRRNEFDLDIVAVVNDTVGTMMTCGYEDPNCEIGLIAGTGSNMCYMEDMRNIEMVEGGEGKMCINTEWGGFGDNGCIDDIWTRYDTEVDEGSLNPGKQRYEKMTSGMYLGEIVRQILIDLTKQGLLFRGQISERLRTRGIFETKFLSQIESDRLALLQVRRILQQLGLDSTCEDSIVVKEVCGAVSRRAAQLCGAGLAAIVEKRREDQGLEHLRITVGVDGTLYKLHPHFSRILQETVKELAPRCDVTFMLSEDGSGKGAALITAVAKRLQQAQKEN

[18] = molecular target: T5, Melanin-concentrating hormone receptor 1 (Homo sapiens, UniProt Q99705); assay: Fluorescence-based counterscreen for antagonists of the G-protein coupled receptor 7 (GPR7): cell-based high throughput dose response assay to identify antagonists of the melanin-concentrating hormone receptor 1 (MCHR1).; type: functional
T5 sequence (Q99705 whole entry): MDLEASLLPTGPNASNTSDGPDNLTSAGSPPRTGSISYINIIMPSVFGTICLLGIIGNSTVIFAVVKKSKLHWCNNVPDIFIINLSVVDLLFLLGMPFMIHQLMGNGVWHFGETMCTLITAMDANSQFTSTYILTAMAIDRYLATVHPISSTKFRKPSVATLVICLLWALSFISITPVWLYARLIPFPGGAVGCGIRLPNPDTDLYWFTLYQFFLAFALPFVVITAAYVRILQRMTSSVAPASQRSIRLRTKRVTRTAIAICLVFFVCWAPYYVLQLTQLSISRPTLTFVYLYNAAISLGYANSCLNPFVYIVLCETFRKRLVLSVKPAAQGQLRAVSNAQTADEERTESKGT

[19] = molecular target: T6, Neuropeptides B/W receptor type 1 (Homo sapiens, UniProt P48145); assay: Fluorescence-based dose response cell-based high throughput screening assay to identify antagonists of the G-protein coupled receptor 7 (GPR7). [Related pubchem assays: 1952 (Screening assay (GPR7 antagonists).), 1880 (Summary AID.)]; type: functional
T6 sequence (P48145 whole entry): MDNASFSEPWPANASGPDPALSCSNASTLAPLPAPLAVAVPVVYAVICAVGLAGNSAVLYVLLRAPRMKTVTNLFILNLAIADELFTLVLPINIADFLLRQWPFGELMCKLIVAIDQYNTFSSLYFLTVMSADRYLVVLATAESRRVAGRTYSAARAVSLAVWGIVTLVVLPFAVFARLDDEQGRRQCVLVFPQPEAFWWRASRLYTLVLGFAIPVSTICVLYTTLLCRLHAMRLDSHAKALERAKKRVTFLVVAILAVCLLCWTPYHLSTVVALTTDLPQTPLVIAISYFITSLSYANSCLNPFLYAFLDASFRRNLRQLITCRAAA

Hexokinase-1 = molecular target: T7, Hexokinase-1 (Homo sapiens, UniProt P19367); assay: HK1 enzyme inhibition by HKDC1 hits, SAR follow-up, selectivity assay for HKDC1 inhibitor project, biochemical, set 2, resazurin fluorescence coupled readout (AID 588356); type: functional
T7 sequence (P19367 whole entry): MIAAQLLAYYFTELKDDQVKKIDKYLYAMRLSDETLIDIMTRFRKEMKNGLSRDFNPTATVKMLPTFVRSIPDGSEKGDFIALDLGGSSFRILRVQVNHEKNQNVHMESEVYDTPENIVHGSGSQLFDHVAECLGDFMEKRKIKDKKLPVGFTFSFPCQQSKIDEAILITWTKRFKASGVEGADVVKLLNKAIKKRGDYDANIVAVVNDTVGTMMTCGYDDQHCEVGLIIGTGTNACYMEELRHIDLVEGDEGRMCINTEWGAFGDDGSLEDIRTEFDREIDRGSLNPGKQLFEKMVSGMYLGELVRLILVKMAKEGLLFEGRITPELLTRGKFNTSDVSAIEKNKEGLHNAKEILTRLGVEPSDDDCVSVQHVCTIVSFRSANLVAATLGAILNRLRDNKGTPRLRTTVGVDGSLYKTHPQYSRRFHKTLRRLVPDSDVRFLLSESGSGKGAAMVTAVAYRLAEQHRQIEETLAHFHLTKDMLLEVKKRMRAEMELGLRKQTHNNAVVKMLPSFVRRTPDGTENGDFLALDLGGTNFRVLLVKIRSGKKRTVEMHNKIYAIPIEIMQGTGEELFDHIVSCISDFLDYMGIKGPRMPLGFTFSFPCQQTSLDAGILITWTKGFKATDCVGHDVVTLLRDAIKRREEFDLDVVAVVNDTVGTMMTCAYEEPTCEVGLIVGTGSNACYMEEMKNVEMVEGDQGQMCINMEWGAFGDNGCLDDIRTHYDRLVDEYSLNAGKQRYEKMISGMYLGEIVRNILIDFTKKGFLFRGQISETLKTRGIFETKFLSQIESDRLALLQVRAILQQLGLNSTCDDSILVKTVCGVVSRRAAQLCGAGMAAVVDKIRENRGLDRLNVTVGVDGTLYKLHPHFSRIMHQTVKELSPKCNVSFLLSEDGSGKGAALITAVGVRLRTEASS

[20] = molecular target: T5, Melanin-concentrating hormone receptor 1; assay: Late-stage fluorescence-based counterscreen for antagonists of the G-protein coupled receptor 7 (GPR7): cell-based dose response assay to identify antagonists of the melanin-concentrating hormone receptor 1 (MCHR1) Set 5.; type: functional
[21] = molecular target: T6, Neuropeptides B/W receptor type 1; assay: GPR7 antagonist potency, late-stage follow-up, cell-based, fluorescence, dose response, set 5 (AID 588566); type: functional

Sequence of Voltage-gated inwardly rectifying potassium channel KCNH2 (Q12809 whole entry): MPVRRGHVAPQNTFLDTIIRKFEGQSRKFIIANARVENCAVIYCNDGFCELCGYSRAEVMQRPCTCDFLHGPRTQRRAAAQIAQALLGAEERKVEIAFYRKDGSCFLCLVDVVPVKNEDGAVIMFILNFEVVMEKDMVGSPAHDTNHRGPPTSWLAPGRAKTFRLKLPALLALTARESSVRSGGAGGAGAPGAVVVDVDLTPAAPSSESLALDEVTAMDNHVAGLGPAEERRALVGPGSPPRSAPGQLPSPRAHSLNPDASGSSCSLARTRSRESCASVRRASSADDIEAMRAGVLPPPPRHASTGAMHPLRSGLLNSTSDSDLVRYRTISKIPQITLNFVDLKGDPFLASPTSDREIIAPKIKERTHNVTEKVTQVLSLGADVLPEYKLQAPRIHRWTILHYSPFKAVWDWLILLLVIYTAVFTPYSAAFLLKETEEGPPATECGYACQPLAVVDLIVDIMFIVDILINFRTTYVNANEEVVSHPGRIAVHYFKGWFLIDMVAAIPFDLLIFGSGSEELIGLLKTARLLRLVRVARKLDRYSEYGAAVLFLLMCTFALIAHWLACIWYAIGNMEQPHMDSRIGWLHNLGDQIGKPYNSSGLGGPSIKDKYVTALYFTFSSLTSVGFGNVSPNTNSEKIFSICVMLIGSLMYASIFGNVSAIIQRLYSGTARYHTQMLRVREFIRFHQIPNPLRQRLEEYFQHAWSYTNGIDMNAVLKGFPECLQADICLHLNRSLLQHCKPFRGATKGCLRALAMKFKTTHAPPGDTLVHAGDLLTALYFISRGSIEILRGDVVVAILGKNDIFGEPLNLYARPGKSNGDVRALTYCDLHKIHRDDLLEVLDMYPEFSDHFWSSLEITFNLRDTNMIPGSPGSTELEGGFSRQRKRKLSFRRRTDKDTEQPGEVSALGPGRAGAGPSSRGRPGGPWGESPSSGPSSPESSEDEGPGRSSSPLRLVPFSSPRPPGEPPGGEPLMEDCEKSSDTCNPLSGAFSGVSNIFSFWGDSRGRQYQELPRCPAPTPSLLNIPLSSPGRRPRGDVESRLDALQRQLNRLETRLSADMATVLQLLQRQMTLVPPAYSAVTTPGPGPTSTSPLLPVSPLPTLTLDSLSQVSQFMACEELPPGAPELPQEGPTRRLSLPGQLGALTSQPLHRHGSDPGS

Oc1ccc(C2CNCc3sccc32)cc1O (stereo unspecified)
EC50 (cells [1]): > 29.9 µM (inactive)
AC50 [2]: 11.2 µM (inconclusive)
EC50 [3]: 0.452 µM (active)
IC50 [4]: 4.33 µM (active)
EC50 [5]: 0.752 µM (active)
EC50 (Mu-type opioid receptor): 92.5 µM (inactive)
IC50 (cells [6]): > 29.9 µM (inactive)

COc1ccc(C(=O)NN=C(NS(=O)(=O)c2ccc(C)cc2)c2ccccc2)cc1
AC50 (HeLa): 55.4 µM (active)
IC50 (Protein skinhead-1): > 100 µM (inactive)

CC(C)(C)OC(=O)NCc1ccc(NC(=O)c2[nH]cnc2C(=O)N[C@@H](Cc2ccccc2)C(=O)OCc2ccccc2)cc1
IC50 [7]: > 64.6 µM (inactive)

CC(C)(C)OC(=O)NCc1ccc(NC(=O)c2nc[nH]c2C(=O)N[C@@H](Cc2ccccc2)C(=O)OCc2ccccc2)cc1
IC50 (Melanocortin receptor 4): > 64.6 µM (inactive)

CCN(c1ccccc1)S(=O)(=O)c1ccc(NC(=O)c2nc(S(C)(=O)=O)ncc2Cl)cc1
IC50 (Fatty acid synthase [8]): 6.22 µM (active)
EC50 [9]: > 20 µM (inactive)
AC50 [10]: 15.2 µM (active)
IC50 (HEK293 [11]): > 20 µM (inactive)
IC50 (HEK293 [12]): > 20 µM (inactive)
IC50 (HEK293 [13]): 8.24 µM (inactive)
AC50 [14]: 0.562 µM (active)
AC50 [15]: 4.56 µM (active)
EC50 (HEK293 [16]): > 20 µM (inactive)
AC50 (INS1): 5.28 µM (active)
IC50 (Beta Lactamase): 7.96 µM (active)
IC50 (Fatty acid synthase [17]): 3.48 µM (active)
IC50 (CHO): 2.53 µM (active)

O=C1OCCC1Sc1nc2ccccc2n1Cc1ccccc1 (stereo unspecified)
IC50 [7]: > 64.6 µM (inactive)
IC50 (Melanocortin receptor 4): 10.9 µM (inactive)

COc1ccc2cc(-c3nc4ccccc4n3C)c(=O)oc2c1
AC50 (HeLa): 174 µM (active)

CCCCN1C(=O)C(NC(C)=O)c2cc(Br)ccc21 (stereo unspecified)
IC50 (Hexokinase HKDC1): > 80 µM (inactive)
IC50 [18]: > 43.8 µM (not active)
IC50 [19]: > 43.8 µM (not active)
IC50 (Hexokinase-1): > 80 µM (inactive)

CCOC(=O)Cc1c(Cl)cnn(Cc2cccc3ccccc23)c1=O
IC50 [20]: 10.9 µM (inactive)
IC50 [21]: 10.3 µM (inactive)

N#CC(c1cccnc1)c1c(Cl)cnn(Cc2cccc3ccccc23)c1=O (stereo unspecified)
IC50 [20]: 4.56 µM (active)
IC50 [21]: 0.975 µM (active)

CC1CC(OC(=O)c2ccccc2O)CC(C)(C)C1 (stereo unspecified) [HOMOSALATE]
AC50 [2]: 6.31 µM (inconclusive)
